Tests used:
LD50, mouse = details: in vivo
[1] = pH dependency of the 19F NMR chemical shift (ppm/pH); assay type: physicochemical; details: change of 19F chemical shift per pH unit
Text: Determination of the pH value with the aid of NMR spectroscopy is based on the measurement of the signals from a chemical compound which is in a pH-dependent, reversible equilibrium. If this equilibrium is slow with respect to the NMR time scale, then the signals of all components can be obtained, and the signal intensities correspond to the concentrations of the equilibrium components. In contrast thereto, with a fast equilibrium, only one signal can be measured, and the chemical shift is given by the chemical displacement of the equilibrium components and their concentration.
In a two-component equilibrium, with knowledge of the pKa value and the chemical shift of the components, it is then possible to calculate the pH value with the aid of the Henderson-Hasselbalch equation.
The frequency (chemical shift) of a fluorine line is determined by the position of the F atom in the molecule. This also holds true, in principle, for all other atomic nuclei, but the chemical shift is especially strongly pronounced in case of the fluorine atom. In order to observe and/or quantify a shift of the fluorine signal, a related (reference) line is needed. This frequency line can be the ^1 H signal, an external F standard or, respectively, an unchanging F line which is likewise within the area to be measured. […]

pKa (37° C.) = assay type: physicochemical

Structure (SMILES)	LD50 (LD50, mouse)	ppm/pH [1]	pKa (pKa (37° C.))
O=C(O)CN(CC(=O)O)C(=O)CS(=O)(=O)Nc1ccc(F)cc1C(F)(F)F [Example 10, 2-[2-[N-(4-Fluoro-2-trifluoromethylphenyl)sulfamoyl]acetylimino]diacetic Acid]	≤ 7500 µmol/kg	4.94 ppm/pH	6.68
O=C(O)CCNC(=O)CCS(=O)(=O)Nc1ccc(F)cc1C(F)(F)F [Example 48, 3-[3-[N-(4-Fluoro-2-trifluoromethylphenyl)sulfamoyl]propionylamino]propionic Acid]	4000 µmol/kg	5.21 ppm/pH	6.91

From patent US5210290A, “Fluorobenzenesulfonamides” (Schering Aktiengesellschaft, priority 1990, dated 1993)
